Laboratory results from patent US20090018150A1, “5-Ht2b Receptor Antagonists” (ASTERAND UK LIMITED, priority 2003, published 2009).

Legend:
[1] = molecular target: T1, human cloned 5-HT2B receptors (Homo sapiens, UniProt P41595); assay: Human cloned 5-HT2B receptor binding assay; conditions: [3H]LSD (1 nM) displacement, membranes of CHO-K1 cells expressing cloned 5-HT2B receptor; read-out: 5-HT2B pKi (converted)
T1 construct: expressed in transfected cells; host or cells: CHO-K1
In short: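 Membranes from CHO-K1 cells expressing cloned receptor incubated 30 min at 37 °C with 1 nM [3H]LSD, 10 μM pargyline and compound (1×10^−10 to 1×10^−4 M) in 50 mM Tris-HCl pH 7.4, 4 mM CaCl2. Nonspecific binding with 100 μM 5-HT; filtration and scintillation counting, IC50 converted to Ki using Kd from saturation binding.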

[2] = molecular target: T2, cloned human 5-HT2A receptor (Homo sapiens, UniProt P28223); assay: Human 5-HT2A receptor binding assay; conditions: [3H]ketanserin (1 nM) displacement, CHO-K1 cell membranes; read-out: 5-HT2A pKi (converted)
T2 construct: purchased Euroscreen; host or cells: CHO-K1
T2 sequence (P28223 whole entry): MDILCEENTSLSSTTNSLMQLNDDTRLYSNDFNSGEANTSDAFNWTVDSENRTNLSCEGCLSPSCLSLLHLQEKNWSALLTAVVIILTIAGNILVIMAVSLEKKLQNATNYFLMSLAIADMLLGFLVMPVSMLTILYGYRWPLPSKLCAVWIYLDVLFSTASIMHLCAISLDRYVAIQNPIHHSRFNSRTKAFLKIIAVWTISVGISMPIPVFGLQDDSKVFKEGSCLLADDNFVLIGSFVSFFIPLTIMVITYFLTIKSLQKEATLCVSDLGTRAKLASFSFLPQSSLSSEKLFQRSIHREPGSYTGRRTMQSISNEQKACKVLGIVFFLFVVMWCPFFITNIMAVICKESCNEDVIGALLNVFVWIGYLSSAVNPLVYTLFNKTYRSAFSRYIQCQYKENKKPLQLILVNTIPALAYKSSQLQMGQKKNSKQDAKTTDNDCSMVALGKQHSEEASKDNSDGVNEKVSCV
In short: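 Competition binding with 15 μg membranes from CHO-K1 cells expressing cloned human receptor, 1 nM [3H]ketanserin, 10 μM pargyline, 50 mM Tris pH 7.4, compounds 1×10^−10 to 1×10^−4 M; 100 μM mianserin defined nonspecific binding. Incubated 15 min at 37 °C, filtered, counted; IC50 converted to Ki using saturation-derived Kd.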

[3] = molecular target: T3, cloned human 5-HT2C receptor (Homo sapiens, UniProt P28335); assay: Human 5-HT2C receptor binding assay; conditions: [3H]mesulergine (1 nM) displacement, CHO-K1 cell membranes; read-out: 5-HT2C pKi (converted)
T3 construct: purchased Euroscreen; host or cells: CHO-K1
T3 sequence (P28335 33-458): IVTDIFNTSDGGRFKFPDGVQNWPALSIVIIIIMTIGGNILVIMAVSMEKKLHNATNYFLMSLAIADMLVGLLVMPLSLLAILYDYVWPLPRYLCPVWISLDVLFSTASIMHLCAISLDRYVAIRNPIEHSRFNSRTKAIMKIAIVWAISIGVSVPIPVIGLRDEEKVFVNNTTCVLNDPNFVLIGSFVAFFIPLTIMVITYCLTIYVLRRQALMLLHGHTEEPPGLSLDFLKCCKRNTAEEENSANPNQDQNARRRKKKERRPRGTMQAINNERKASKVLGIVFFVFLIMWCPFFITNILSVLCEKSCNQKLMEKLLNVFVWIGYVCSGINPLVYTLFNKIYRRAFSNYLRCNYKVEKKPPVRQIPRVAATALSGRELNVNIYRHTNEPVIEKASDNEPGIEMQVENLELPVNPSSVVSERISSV
In short: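 CHO-K1 cell membranes expressing the receptor (6 μg) competed against [^3H]mesulergine (1 nM) in 50 mM Tris-HCl pH 7.7, 0.1% ascorbic acid, 10 μM pargyline for 30 min at 37° C; compounds 1×10^−10 to 1×10^−4M. Nonspecific binding with 100 μM mianserin; filtration and scintillation counting. IC50 converted to Ki using saturation-derived Kd.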

[4] = molecular target: T1, human cloned 5-HT2B receptors; assay: Human cloned 5-HT2B cell-based functional assay; conditions: inhibition of 5-HT response, Fluo-4 AM, CHO.K1 cells expressing cloned 5-HT2B receptor
Description: The following describes an in vitro functional assay using human cloned 5-HT2B receptors to determine the ability of compounds to block the receptor. CHO.K1 cells expressing cloned 5-HT2B receptor were maintained In Ultra-CHO medium containing 400 μg/ml of G418, 1000 U/ml penicillin, 100 μg/ml streptomycin, 2.5 μg/ml fungizone, in 95/5% O2/CO2 at 37° C. Ultra-CHO medium additionally supplemented with 1% foetal bovine serum was used when seeding the cells and removed after 5 hours. Cells were plated in Costar 96 well white, clear-bottomed plate at a density of 50,000 cells per well and incubated for at least 24 hours in 95/5% O2/CO2 at 37° C. before running the assay. Media was removed from the wells and 200 μl of 4 μM Fluo-4 AM added, this was incubated in a Wallace Victor 2V workstation at 37° C. for 30 minutes. The Fluo-4 AM was then removed from the wells, which were then washed twice with 200 μl of buffer (HBSS without calcium/magnesium/phenol red, 20 mM HEPES, 1 mM Ca^2+, 1 mM Mg^2+, 2.5 mM probenecid, pH to 7.4), 180 μl of buffer or test compound was added to the well and incubated for 30 minutes. The Victor 2V injectors were used to inject 20 μl of 5-HT after obtaining 10 0.1-second baseline readings at 535 nm, followed by 150 readings. All test compounds were aliquoted in 100% DMSO at 10 mM and diluted to 1 mM in 50% DMSO, subsequent dilutions were made using buffer. Buffer was also used to dilute the 5-HT. Data were analysed using Microsoft Excel and GraphPad Prism, with the latter used to produce sigmoidal dose-response curves for each compound. The compound concentration that inhibited the 5-HT response by 50% was taken (IC50-M), and the results are shown in Table 2, as pIC50, being the negative log (to the base 10) of the measured IC50 values.

T1 sequence (P41595 whole entry): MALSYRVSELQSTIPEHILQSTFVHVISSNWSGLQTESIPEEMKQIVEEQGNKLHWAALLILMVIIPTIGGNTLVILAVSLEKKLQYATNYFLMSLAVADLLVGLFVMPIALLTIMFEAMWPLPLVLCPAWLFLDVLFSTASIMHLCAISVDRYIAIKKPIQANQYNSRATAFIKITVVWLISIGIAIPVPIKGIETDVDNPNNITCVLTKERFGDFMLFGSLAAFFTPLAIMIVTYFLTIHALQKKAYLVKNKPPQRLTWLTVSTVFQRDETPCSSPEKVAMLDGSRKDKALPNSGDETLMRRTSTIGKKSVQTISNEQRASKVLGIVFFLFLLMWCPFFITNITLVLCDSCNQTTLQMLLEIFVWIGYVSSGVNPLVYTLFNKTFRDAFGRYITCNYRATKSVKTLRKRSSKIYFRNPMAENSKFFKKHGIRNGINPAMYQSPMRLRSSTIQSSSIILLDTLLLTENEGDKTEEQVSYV

| SMILES | Ki [1] [nM] | Ki [2] [nM] | Ki [3] [nM] | IC50 [4] [nM] |
| --- | --- | --- | --- | --- |
| COc1ccc2ccccc2c1-c1c[nH]c(NC(C)=O)n1 [Compound 103C, N-[4-(2-Methoxy-naphthalen-1-yl)-1H-imidazol-2-yl]-acetamide] | < 100 | > 316 | > 316 | < 100 |
| CC(=O)Nc1nc(-c2ccc(F)c3ccccc23)c[nH]1 [Compound 103F, N-[4-(4-Fluoro-naphthalen-1-yl)-1H-imidazol-2-yl]-acetamide] | < 100 | > 3160 | > 3160 | < 100 |
| COc1ccc2ccccc2c1-c1c[nH]c(N)n1 [Compound 104C, 4-(2-Methoxy-naphthalen-1-yl)-1H-imidazol-2-ylamine] | < 100 | > 1000 | > 316 | < 1000 |
| COc1ccc2ccccc2c1-c1nc(N)[nH]c1C [Compound 104J, 4-(2-Methoxy-naphthalen-1-yl)-5-methyl-1H-imidazol-2-ylamine] | < 100 | > 316 | > 100 | < 100 |
| Nc1ncc(-c2cccc(-c3ccc(F)cc3)c2)o1 [Compound 209J, 5-(4′-Fluoro-biphenyl-3-yl)-oxazol-2-ylamine, trifluoroacetic acid] | < 1000 | > 1000 | > 1000 |  |
| Cc1cc(C)cc(-c2cccc(-c3cnc(N)o3)c2)c1 [Compound 209K, 5-(3′,5′-Dimethyl-biphenyl-3-yl)-oxazol-2-ylamine, trifluoroacetic acid] | < 1000 | > 1000 | > 1000 |  |
| Cn1nc(N)nc1Nc1cccc(-c2ccccc2)c1 [Compound 406A, N^5-biphenyl-3-yl-1-methyl-1H-[1,2,4]triazole-3,5-diamine] | < 316 | > 1000 | > 1000 |  |
| COc1ccccc1-c1cccc(Nc2nc(N)nn2C)c1 [Compound 406B, N^5-(2′-methoxy-biphenyl-3-yl)-1-methyl-1H-[1,2,4]triazole-3,5-diamine] | < 316 | > 1000 | > 1000 |  |
| Cc1cccc(-c2cccc(Nc3nc(N)nn3C)c2)c1 [Compound 406C, 1-methyl-1-(3′-methyl-biphenyl-3-yl)-1H-[1,2,4]triazole-3,5-diamine] | < 100 | > 1000 | > 1000 | < 100 |

Now from value to compound, other results behind:

| Ki [1] [nM] | Ki [2] [nM] | Ki [3] [nM] | SMILES | IC50 [4] [nM] |
| --- | --- | --- | --- | --- |
| < 1000 | > 1000 | > 1000 | Cc1oc(N)nc1-c1cccc(-c2ccccc2)c1 [Compound 218A, 4-Biphenyl-3-yl-5-methyl-oxazol-2-ylamine, trifluoroacetic acid] |  |
| < 316 | > 1000 | > 1000 | COc1ccccc1-c1cccc(-c2nc(N)oc2C)c1 [Compound 218C, 4-(2′-methoxy-biphenyl-3-yl)-5-methyl-oxazol-2-ylamine, trifluoroacetic acid] |  |
| < 316 | > 1000 | > 1000 | Cc1nc(N)oc1-c1cccc(-c2ccccc2)c1 [Compound 219A, 5-biphenyl-3-yl-4-methyl-oxazol-2-ylamine, trifluoroacetic acid] |  |
| < 100 | > 1000 | > 1000 | COc1ccccc1-c1cccc(-c2oc(N)nc2C)c1 [Compound 219B, 5-(2′-Methoxy-biphenyl-3-yl)-4-methyl-oxazol-2-ylamine, trifluoroacetic acid] | < 1000 |
| < 1000 | > 1000 | > 1000 | COc1ccc(-c2ccccc2)cc1-c1cnc(N)o1 [Compound 224A, 5-(4-methoxy-biphenyl-3-yl)-oxazol-2-ylamine, trifluoroacetic acid] |  |
| < 316 | > 1000 | > 1000 | COc1ccccc1-c1ccc(OC)c(-c2cnc(N)o2)c1 [Compound 224B, 5-(4,2′-dimethoxy-biphenyl-3-yl)-oxazol-2-ylamine, trifluoroacetic acid] |  |
| < 1000 | > 1000 | > 1000 | COc1ccc(-c2cccc(C)c2)cc1-c1cnc(N)o1 [Compound 224C, 5-(4-Methoxy-3′-methyl-biphenyl-3-yl)-oxazol-2-ylamine, trifluoroacetic acid] |  |
| < 1000 | > 1000 | > 1000 | Cc1cccc(-c2ccc(Nc3nc(N)nn3C)cc2)c1 [Compound 410C, 1-methyl-N^5-(3′-methyl-biphenyl-4-yl)-1H-[1,2,4]triazole-3,5-diamine trifluoroacetic acid] |  |
| < 1000 | > 1000 | > 1000 | Cn1nc(Nc2ccc(-c3ccccc3)cc2)nc1N [Compound 411A, N^3-biphenyl-4-yl-1-methyl-1H-[1,2,4]triazole-3,5-diamine trifluoroacetic acid] |  |
| < 1000 | > 1000 | > 1000 | COc1ccccc1-c1ccc(Nc2nc(N)n(C)n2)cc1 [Compound 411B, N^3-(2′-methoxy-biphenyl-4-yl)-7-methyl-1H-[1,2,4]triazole-3,5-diamine trifluoroacetic acid] |  |
| < 1000 | > 1000 | > 1000 | Cc1cccc(-c2ccc(Nc3nc(N)n(C)n3)cc2)c1 [Compound 411C, 1-methyl-N^3-(3′-methyl-biphenyl-4-yl)-1H-[1,2,4]triazole-3,5-diamine trifluoroacetic acid] |  |
